Results reported in patent US20220073557A1, “FLUORINATED BILE ACIDS” (NZP UK LIMITED, priority 2018, published 2022).

How the values were obtained:
[1] = tested on: sporadic PD patient fibroblast lines; test: Seahorse assay (oxygen consumption, extracellular acidification rate) in sPD fibroblasts; type: cell-based, human
Experimental: Fibroblasts are plated into Seahorse 24 well plates with 50,000 cells per well. Cells are left to attach for 2 days. Media is changed to Seahorse DMEM media with glucose and sodium pyruvate and left to equilibrate at 37 degrees normal air CO2 for 1 hour. The plate is entered into the Seahorse machine and run on a program of mix (2 minutes), wait (3 minutes) and measure (3 minutes). After three measurements of basal respiration and ECAR; 0.5 μM oligomycin is injected after which another three measurements are taken; then 0.5 μM of FCCP is injected and three measurements taken and finally 1 μM rotenone is injected and three measurements taken. After all measurements are complete, cells are stained with 10 μM Hoescht and imaged using the InCell to count the number of cells per well for normalisation. This classical ritochondrial stress test experimental protocol allows us to calculate the basal mitochondrial respiration, ATP linked respiration (the amount which is coupled to ATP generation), the maximal and spare respiratory capacity, the non-mitochondrial respiration rate and the extracellular acidification rate which is a proxy measure of glycosolysis.

[2] = tested on: sporadic PD patient fibroblasts; test: Cellular ATP levels (ATPlite, normalised to CyQUANT DNA content) in sporadic PD patient fibroblasts; type: cell-based; conditions: Homo sapiens, Fibroblast, 24 h
Experimental: Fibroblasts were cultured in DMEM (Invitrogen) and routinely subcultured every 3-5 days using trypsin to dissociate them.
The ATP protocol is generally as described in Mortiboys et al, “Mitochondrial function and morphology are impaired in parkin-mutant fibroblasts”, Ann Neurol. 2008 November; 64(5):555-65. Briefly, fibroblasts were cultured as and plated into white 384 well plates with 5000 cells per well in 50 μl of media volume. The plates are left overnight in an incubator to allow the fibroblasts to adhere to the plate surface. The following morning the Glucose based medium is replaced with 25 μl of Galactose based medium. The compounds are added to the plates using a ECHO 550 liquid handling system. The wells were dosed to provide an 8-point concentration range of 0.06 nM-300 nM of compound. After dosing the wells are topped up with a further 25 μl of Galactose based medium and then left in an incubator for 24 hours. Following this incubation the medium is removed from the plate and the wells are washed twice with sterile PBS. The wells are filled with 25 μl of Sterile PBS followed by 12.5 μl of Lysis solution from the ATPlite™ Luminescence ATP detection assay system (Perkin Elmer), including 16 cell free wells to use as blank controls. The plate is then placed on a rotary shaker for 5 mins at 700 rpm. Following the shaking 12.5 μl of ATP substrate solution (Perkin Elmer) is added to each well and a further 5 min of shaking. The plate is then placed in darkness for 10 minutes prior to reading. Using a PHERAStar® plate reader, luminescence intensity is recorded. Following the ATP assay the plates are immediately assayed for DNA content in a CyQUANT® assay.
Immediately following The ATP assay DNA content is assessed with the CyQUANT® NF Cell Proliferation Assay Kit (ThermoFisher). CyQUANT® buffer is prepared immediately before the assay and is comprised of 1 ul CyQUANT® dye per ml×1 HBSS solution. 12.5 ul of CyQUANT® buffer is added to each well. Plate left in incubator for 1 hour then read on a PHERAStar® Plate reader with excitation at 497 nm and emission at 520 nm. ATP Quantification for each well is determined using the following formula: […]
After the assays had been repeated in triplicate per line and compound the data was then inputted into Graph pad Prism 7 software suite where a dose response curve is generated using the default “[Agonist] vs response (three parameters)” equation.
From this EC50 values, lowest response and maximal response were taken and used to calculate the Geometric mean between the 5 different lines assessed.
Cellular ATP levels were measured in fibroblasts from 6 (Table 3) or 3 (Table 4) patients with sporadic Parkinson's disease when treated with Compounds of the invention or Comparator compounds. The results are shown in Tables 3 and 4, where “Bottom”=max response with lowest dose of compound (0.06 nM) and “top”=max response with highest dose of compound (300 nM).

[3] = tested on: mitochondrial respiratory chain complex I; test: Complex I assay, whole brain homogenate of dosed wild type mice; type: in vivo; conditions: wild type mouse whole brain homogenate, FIG. 3
Experimental: Ex vivo mice brain was homogenated in a buffer of 250 mM sucrose, 20 mM HEPES, 3 mM EDTA, pH 7.5 at 4° C. Homogenisation was carried out using a Dounce homogenizer, for cortex samples, and by repetitive passage through a 0.5 mm syringe for isolated striatum. Samples were then incubated with 30 μl of detergent from the AbCam colorimetric Complex I assay kit on ice for 20 minutes. Samples are then centrifuged at 13,000 rpm for 30 mins. Triplicate samples per condition were blocked using the kit blocking buffer on the AbCam colorimetric Complex I assay kit plate for 3 hours. Samples are then washed using the kit wash buffer 3 times before the addition of the kit assay buffer containing NADH and colorimetric dye. The assay plate is read on a plate reader in a kinetic assay programme reading 450 nm in a 30 second interval for 50 minutes.

[4] = tested on: sAD and familial AD (PSEN1 mutants) patient fibroblasts; test: Total cellular ATP levels in Alzheimer's disease patient fibroblasts; type: cell-based, human; conditions: 24 hour treatment at 100 nM, 21% restores to control levels
Experimental: Data shown in the Table 6 below is the mean increase in ATP levels after 24 hour treatment with compounds at 100 nM concentration.

## C[C@H](CCC(=O)O)[C@H]1CC[C@H]2[C@@H]3[C@@H](O)C[C@@H]4C[C@@H](O)C(F)(F)C[C@]4(C)[C@H]3CC[C@]12C [Compound 7, 2,2-difluoro-3β,7β-dihydroxy-5β-cholanic acid]
[1]; 6 sPD fibroblast lines, dosed at EC90 (UDCA 100 nM, Compound 7 50 nM), FIG. 1A-1C
  Mitochondrial respiration (basal, maximal and ATP linked respiration; oxygen consumption): significantly improves all three mitochondrial parameters
[1]; 6 sPD fibroblasts, FIG. 2
  Extracellular acidification rate (ECAR, proxy measure of glycolysis): significantly improved
[1]; Homo sapiens, Fibroblast, read-out: EC90 concentration
  EC90: 50 nM
[2]; read-out: Cellular ATP levels Bottom (% of vehicle treated)
  activity at 60 pM: 112%
[2]; read-out: Cellular ATP levels EC50 (nM)
  EC50: 0.429 nM
[2]; read-out: Cellular ATP levels Top (% of vehicle treated)
  activity at 0.3 µM: 172%
[3]; 4 mg/kg dose
  Increase in Complex I activity compared to untreated controls: approximately 380%
[3]; 12 mg/kg dose
  Increase in Complex I activity compared to untreated controls: approximately 800%
[4]
  % increase over vehicle treated (mean increase in ATP levels): 24%
